Reference: BindingDB's records for doi:10.1186/1472-6769-1-3 (Kimmel Cancer Center, 2001)

Biological target: Bis(5'-adenosyl)-triphosphatase (Homo sapiens, UniProt P49789)
Experiment: Enzyme Inhibition Assay
Excerpt: Inhibition assay using Fhit with ApppBODIPY.

Chain of Bis(5'-adenosyl)-triphosphatase (P49789 whole entry): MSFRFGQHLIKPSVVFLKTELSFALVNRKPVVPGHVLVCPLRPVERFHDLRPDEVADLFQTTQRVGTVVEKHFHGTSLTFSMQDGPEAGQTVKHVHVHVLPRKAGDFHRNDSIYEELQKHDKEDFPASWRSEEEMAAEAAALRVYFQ

Structure (SMILES)	Ki [µM]
Nc1ncnc2c1ncn2C1OC(COP(=O)(S)SCCCSP(O)(=S)OCC2OC(n3cnc4c(N)ncnc43)C(O)C2O)C(O)C1O (stereo unspecified) [AppppA analog, 11 (X=S)]	5.2
Nc1ncnc2c1ncn2C1OC(COP(=O)(S)OCC(COP(=O)(S)OCC2OC(n3cnc4c(N)ncnc43)C(O)C2O)(COP(=O)(S)OCC2OC(n3cnc4c(N)ncnc43)C(O)C2O)COP(O)(=S)OCC2OC(n3cnc4c(N)ncnc43)C(O)C2O)C(O)C1O (stereo unspecified) [AppppA analog, 13 (X=S)]	0.065
Nc1ncnc2c1ncn2C1OC(COP(=O)(S)OCC(O)C(O)COP(O)(=S)OCC2OC(n3cnc4c(N)ncnc43)C(O)C2O)C(O)C1O (stereo unspecified) [AppppA analog, 4 (X=S)]	86
Nc1ncnc2c1ncn2C1O[C@H](COP(O)(=S)OC=P(O)(O)COP(=O)(S)OCC2O[C@@H](n3cnc4c(N)ncnc43)[C@H](O)[C@@H]2O)[C@@H](O)[C@H]1O (stereo partly specified) [AppppA analog, 5 (X=S)]	0.22
Nc1ncnc2c1ncn2C1O[C@H](COP(=O)(S)NCCCNP(O)(=S)OCC2O[C@@H](n3cnc4c(N)ncnc43)[C@H](O)[C@@H]2O)[C@@H](O)[C@H]1O (stereo partly specified) [AppppA analog, 10 (X=S)]	3.3
Nc1ncnc2c1ncn2C1OC(COP(=O)(O)OCC(COP(=O)(O)OCC2O[C@@H](n3cnc4c(N)ncnc43)[C@H](O)[C@@H]2O)(COP(=O)(O)OCC2O[C@@H](n3cnc4c(N)ncnc43)[C@H](O)[C@@H]2O)COP(=O)(O)OC[C@H]2OC(n3cnc4c(N)ncnc43)[C@H](O)[C@@H]2O)[C@H](O)[C@@H]1O (stereo partly specified) [AppppA analog, 13 (X=O)]	3.2
Nc1ncnc2c1ncn2C1O[C@H](COP(=O)(O)OCC(COP(=O)(O)O)(COP(=O)(O)O)COP(=O)(O)OCC2O[C@@H](n3cnc4c(N)ncnc43)[C@H](O)[C@@H]2O)[C@@H](O)[C@H]1O (stereo partly specified) [AppppA analog, 14 (X=O)]	0.9
Nc1ncnc2c1ncn2C1OC(COP(=O)(O)OCC(COP(=O)(O)O)(COP(=O)(O)OCC2O[C@@H](n3cnc4c(N)ncnc43)[C@H](O)[C@@H]2O)COP(=O)(O)OC[C@H]2OC(n3cnc4c(N)ncnc43)[C@H](O)[C@@H]2O)[C@H](O)[C@@H]1O (stereo partly specified) [AppppA analog, 12 (X=O)]	1.5
Nc1ncnc2c1ncn2C1O[C@H](COP(=O)(O)OCP(O)(O)=COP(=O)(O)OCC2O[C@@H](n3cnc4c(N)ncnc43)[C@H](O)[C@@H]2O)[C@@H](O)[C@H]1O (stereo partly specified) [AppppA analog, 5 (X=O)]	1.5

More lines, in order of falling Ki, values ahead:

Ki [µM]	Structure (SMILES)
86	Nc1ncnc2c1ncn2C1OC(COP(=O)(S)OC(C(=O)O)C(OP(O)(=S)OCC2OC(n3cnc4c(N)ncnc43)C(O)C2O)C(=O)O)C(O)C1O (stereo unspecified) [AppppA analog, 3 (X=S)]
76	CC(COP(=O)(S)OCC1OC(n2cnc3c(N)ncnc32)C(O)C1O)COP(O)(=S)OCC1OC(n2cnc3c(N)ncnc32)C(O)C1O (stereo unspecified) [AppppA analog, 7 (X=S)]
4.7	Nc1ncnc2c1ncn2C1O[C@H](COP(=O)(O)OCC(O)COP(=O)(O)OCC2O[C@@H](n3cnc4c(N)ncnc43)[C@H](O)C2O)[C@@H](O)[C@H]1O (stereo partly specified) [AppppA analog, 6 (X=O)]
3	Nc1ncnc2c1ncn2C1OC(COP(=O)(S)OCC(N)COP(O)(=S)OCC2OC(n3cnc4c(N)ncnc43)C(O)C2O)C(O)C1O (stereo unspecified) [AppppA analog, 8 (X=S)]
2.7	Nc1ncnc2c1ncn2C1O[C@H](COP(=O)(S)NCC(CNP(O)(=S)OCC2O[C@@H](n3cnc4c(N)ncnc43)[C@H](O)[C@@H]2O)OP(=O)(S)OC[C@H]2OC(n3cnc4c(N)ncnc43)[C@H](O)[C@@H]2O)[C@@H](O)[C@H]1O (stereo partly specified) [AppppA analog, 16 (X=S)]
2.6	Nc1ncnc2c1ncn2C1OC(COP(=O)(S)OCCOP(O)(=S)OCC2OC(n3cnc4c(N)ncnc43)C(O)C2O)C(O)C1O (stereo unspecified) [AppppA analog, 2 (X=S)]
1.5	Nc1ncnc2c1ncn2C1O[C@H](COP(=O)(O)OCC(COP(=O)(O)OCC2O[C@@H](n3cnc4c(N)ncnc43)[C@H](O)[C@@H]2O)OP(=O)(O)OC[C@H]2OC(n3cnc4c(N)ncnc43)[C@H](O)[C@@H]2O)[C@@H](O)[C@H]1O (stereo partly specified) [AppppA analog, 15 (X=O)]
0.7	Nc1ncnc2c1ncn2C1OC(COP(=O)(S)OCC(COP(=O)(O)S)(COP(=O)(O)S)COP(O)(=S)OCC2OC(n3cnc4c(N)ncnc43)C(O)C2O)C(O)C1O (stereo unspecified) [AppppA analog, 14 (X=S)]
0.42	Nc1ncnc2c1ncn2C1O[C@H](COP(=O)(O)OCC(COP(=O)(O)OCC2O[C@@H](n3cnc4c(N)ncnc43)[C@H](O)[C@@H]2O)OP(=O)(O)O)[C@@H](O)[C@H]1O (stereo partly specified) [AppppA analog, 17 (X=O)]
0.23	Nc1ncnc2c1ncn2C1OC(COP(=O)(S)OCCCOP(O)(=S)OCC2OC(n3cnc4c(N)ncnc43)C(O)C2O)C(O)C1O (stereo unspecified) [AppppA analog, 9 (X=S)]
0.11	Nc1ncnc2c1ncn2C1OC(COP(=O)(S)OCC(COP(O)(=S)OCC2OC(n3cnc4c(N)ncnc43)C(O)C2O)OP(=O)(O)S)C(O)C1O (stereo unspecified) [AppppA analog, 17 (X=S)]
0.078	Nc1ncnc2c1ncn2C1OC(COP(=O)(S)OCC(COP(O)(=S)OCC2OC(n3cnc4c(N)ncnc43)C(O)C2O)OP(=O)(S)OCC2OC(n3cnc4c(N)ncnc43)C(O)C2O)C(O)C1O (stereo unspecified) [AppppA analog, 15 (X=S)]
